The results in this text go back to patent publication US20250197375A1, “PYRIMIDINES AND METHODS OF THEIR USE” (Kineta, Inc., priority 2021, published 2025).

As a reminder, the IC50 is the midpoint of a concentration-inhibition curve.

Each structure is given as a SMILES string.

Chain of full-length human PIKFYVE (Q9Y2I7 whole entry S696N/L932S/Q995L/T998S/S1033A/Q1183K): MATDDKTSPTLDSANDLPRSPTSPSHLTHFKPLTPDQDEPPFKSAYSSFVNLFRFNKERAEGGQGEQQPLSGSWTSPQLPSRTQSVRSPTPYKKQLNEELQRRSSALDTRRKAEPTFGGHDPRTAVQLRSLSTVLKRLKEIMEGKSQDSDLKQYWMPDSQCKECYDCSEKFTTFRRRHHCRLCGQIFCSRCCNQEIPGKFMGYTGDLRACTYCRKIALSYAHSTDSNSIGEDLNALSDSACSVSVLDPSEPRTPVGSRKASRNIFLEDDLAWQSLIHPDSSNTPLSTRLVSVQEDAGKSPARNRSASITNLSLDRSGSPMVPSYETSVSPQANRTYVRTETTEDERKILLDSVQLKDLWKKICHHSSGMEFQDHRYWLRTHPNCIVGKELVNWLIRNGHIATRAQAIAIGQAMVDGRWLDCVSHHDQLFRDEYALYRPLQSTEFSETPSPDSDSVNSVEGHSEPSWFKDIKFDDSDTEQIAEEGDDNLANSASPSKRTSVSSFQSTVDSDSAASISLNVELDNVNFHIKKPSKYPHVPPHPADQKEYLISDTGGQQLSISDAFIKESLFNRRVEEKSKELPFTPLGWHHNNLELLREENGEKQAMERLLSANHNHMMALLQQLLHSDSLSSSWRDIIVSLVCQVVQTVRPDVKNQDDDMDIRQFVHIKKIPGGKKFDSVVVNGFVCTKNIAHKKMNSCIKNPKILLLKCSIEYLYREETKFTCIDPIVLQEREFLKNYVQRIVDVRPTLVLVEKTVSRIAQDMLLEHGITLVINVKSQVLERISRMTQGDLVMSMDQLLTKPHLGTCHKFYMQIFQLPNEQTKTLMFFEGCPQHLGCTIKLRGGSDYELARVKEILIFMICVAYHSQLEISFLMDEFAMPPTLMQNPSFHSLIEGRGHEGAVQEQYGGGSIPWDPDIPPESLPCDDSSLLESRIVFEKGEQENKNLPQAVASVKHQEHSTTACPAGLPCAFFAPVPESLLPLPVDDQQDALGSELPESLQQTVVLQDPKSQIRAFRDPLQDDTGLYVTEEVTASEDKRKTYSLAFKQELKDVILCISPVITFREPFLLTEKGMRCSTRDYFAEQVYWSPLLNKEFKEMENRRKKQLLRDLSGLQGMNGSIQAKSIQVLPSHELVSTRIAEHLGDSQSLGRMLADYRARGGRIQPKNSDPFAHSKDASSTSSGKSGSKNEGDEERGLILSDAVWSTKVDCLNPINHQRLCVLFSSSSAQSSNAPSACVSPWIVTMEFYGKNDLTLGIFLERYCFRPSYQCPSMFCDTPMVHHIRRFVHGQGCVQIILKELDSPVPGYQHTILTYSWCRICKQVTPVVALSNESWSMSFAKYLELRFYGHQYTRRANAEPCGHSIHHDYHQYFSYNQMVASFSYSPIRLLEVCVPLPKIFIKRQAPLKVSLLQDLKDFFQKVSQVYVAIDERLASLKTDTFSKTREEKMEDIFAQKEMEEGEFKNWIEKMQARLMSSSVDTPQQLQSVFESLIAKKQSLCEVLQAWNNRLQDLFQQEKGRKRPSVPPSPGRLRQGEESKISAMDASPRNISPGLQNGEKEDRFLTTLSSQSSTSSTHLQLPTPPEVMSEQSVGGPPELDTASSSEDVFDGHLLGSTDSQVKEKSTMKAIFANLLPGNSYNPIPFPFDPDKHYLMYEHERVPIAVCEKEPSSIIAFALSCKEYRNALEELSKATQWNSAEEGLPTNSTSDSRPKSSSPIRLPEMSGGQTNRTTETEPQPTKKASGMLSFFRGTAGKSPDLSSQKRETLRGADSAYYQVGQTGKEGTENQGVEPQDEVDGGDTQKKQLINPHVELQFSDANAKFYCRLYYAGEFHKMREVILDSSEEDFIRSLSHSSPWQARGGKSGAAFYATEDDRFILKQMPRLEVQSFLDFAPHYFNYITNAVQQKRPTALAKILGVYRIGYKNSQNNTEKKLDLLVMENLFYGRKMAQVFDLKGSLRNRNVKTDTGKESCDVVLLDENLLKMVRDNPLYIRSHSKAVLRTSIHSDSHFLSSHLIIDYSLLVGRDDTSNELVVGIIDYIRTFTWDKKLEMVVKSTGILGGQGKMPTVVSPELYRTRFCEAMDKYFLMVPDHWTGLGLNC
Chain of PIKfyve (Q9Y2I7 whole entry): as the sequence (Q9Y2I7 whole entry S696N/L932S/Q995L/T998S/S1033A/Q1183K) above, with N696S, S932L, L995Q, S998T, A1033S, K1183Q counted along it

One assay has as its target full-length human PIKFYVE (Homo sapiens (Human), UniProt Q9Y2I7, L932S/Q1183K/Q995L/S1033A/S696N/T998S). Description: PIKfyve Biochemical Assay (ADP-Glo Kinase assay, GST-PIKFYVE). To be noted: ADP-Glo, 1 hour at room temperature, 10 μM to 3 nM in duplicate; read-out: PIKfyve Biochemistry IC50 (μM)*. Here is the method: PIKfyve Biochemical Assay. The biochemical PIKFyve inhibition assays were run by Cama Biosciences according to proprietary methodology based on the Promega ADP-Glo™ Kinase assay. […] GST-PIKFYVE was purified by using glutathione sepharose chromatography and used in an ADP-Glo™ Kinase assay (Promega). Reactions were set up by adding the test compound solution, substrate solution, ATP solution and kinase solution, each at 4× final concentrations. Reactions were prepared with assay buffer (50 mM MOPS, 1 mM DTT, pH7.2), mixed, and incubated in black 384 well polystyrene plates for 1 hour at room temperature. ADP-Glo™ reagent was then added for 40 minutes, followed by kinase detection reagent for an additional 40 minutes. The kinase activity was evaluated by detecting relative light units on a luminescence plate reader. Samples were run in duplicate from 10 μM to 3 nM. […] IC50 values were calculated from concentration versus percent inhibition curves by fitting to a four-parameter logistic curve.
The biochemical PIKFyve inhibition assays were run by Cama Biosciences according to proprietary methodology based on the Promega ADP-Glo™ Kinase assay. […] GST-PIKFYVE was purified by using glutathione sepharose chromatography and used in an ADP-Glo™ Kinase assay (Promega).
Reactions were set up by adding the test compound solution, substrate solution, ATP solution and kinase solution, each at 4× final concentrations. Reactions were prepared with assay buffer (50 mM MOPS, 1 mM DTT, pH7.2), mixed, and incubated in black 384 well polystyrene plates for 1 hour at room temperature. ADP-Glo™ reagent was then added for 40 minutes, followed by kinase detection reagent for an additional 40 minutes. The kinase activity was evaluated by detecting relative light units on a luminescence plate reader. Samples were run in duplicate from 10 uM to 3 nM. […] IC50 values were calculated from concentration vs % inhibition curves by fitting to a four-parameter logistic curve.
In general terms: In ADP-Glo the light output rises with the ADP produced.
On to `Cn1ccc(-c2ccc3c(c2)-c2nc(N4CCOCC4)nc(Nc4ccncc4)c2OC3)n1` [Compound 49, 9-(1-methyl-1H-pyrazol-3-yl)-2-morpholino-N-(pyridin-4-yl)-6H-isochromeno[4,3-d]pyrimidin-4-amine], for which the IC50 fell in the range of 0.01 to 0.1 µM.
The same measure, in the same setting: in the case of `Cn1c(=O)c2c(Nc3ccncc3)nc(N3CCOCC3)nc2c2cc(-n3cccn3)ccc21` [Compound 65, 6-methyl-2-morpholino-9-pyrazol-1-yl-4-(4-pyridylamino)pyrimido[5,4-c]quinolin-5-one] it was 0.01 to 0.1 µM; in that of `COc1cc(-c2nc(N3CCOCC3)nc(Nc3ccncc3)c2OC)cnc1OC` [Compound 12, 6-(5,6-dimethoxypyridin-3-yl)-5-methoxy-2-morpholino-N-(pyridin-4-yl)pyrimidin-4-amine], less than 0.01 µM.

Another assay addresses PIKfyve (Homo sapiens (Human), UniProt Q9Y2I7). Description: PIKfyve EEA1 Assay (endosomal vesicle enlargement, high content imaging in U2OS cells). It counts as cell-based. To be noted: 3 hours of treatment, activity relative to maximal APY0201 activity. The protocol:
PIKfyve EEA1 Assay. Genetic or pharmacological disruption of PIKfyve activity results in enlargement of endosomal vesicles. This enlargement was utilized as a surrogate readout of PIKFyve inhibition for routine triage of PIKfyve inhibitors. U2OS cells grown in 96-well assay plates were treated with compound diluted in DMEM media containing 10% fetal bovine serum. After 3 hours of treatment, cells were fixed with paraformaldehyde, permeabilized with 0.2% Triton-X in phosphate buffered saline and stained against EEA1. During the secondary antibody staining, cells were also stained with CellMask™ Deep Red and Hoechst to detect cytoplasms and nuclei respectively. Endosomal structures were visualized using a high content imager at 40× magnification. Images were analyzed using a linear classifier algorithm integrating EEA1 spot size, intensity and texture trained on images of cells treated with the potent reference compound APY0201. Compound activity was calculated by subtracting the DMSO signal and calculating percentage activity relative to maximal APY0201 activity. IC50 values were then calculated from concentration versus percent inhibition data by logistic regression.
`Cn1ccc(-c2ccc3c(c2)-c2nc(N4CCOCC4)nc(Nc4ccncc4)c2OC3)n1` [Compound 49, 9-(1-methyl-1H-pyrazol-3-yl)-2-morpholino-N-(pyridin-4-yl)-6H-isochromeno[4,3-d]pyrimidin-4-amine] yielded an IC50 of 0.1 to 1 µM.
Compound `Cn1c(=O)c2c(Nc3ccncc3)nc(N3CCOCC3)nc2c2cc(-n3cccn3)ccc21` [Compound 65, 6-methyl-2-morpholino-9-pyrazol-1-yl-4-(4-pyridylamino)pyrimido[5,4-c]quinolin-5-one] came in with an IC50 of 1 to 10 µM.
Compound `COc1cc(-c2nc(N3CCOCC3)nc(Nc3ccncc3)c2OC)cnc1OC` [Compound 12, 6-(5,6-dimethoxypyridin-3-yl)-5-methoxy-2-morpholino-N-(pyridin-4-yl)pyrimidin-4-amine] came in with an IC50 of 0.1 to 1 µM.
As for `COc1c(-c2cccc(-n3cccn3)c2)nc(N2CCN(C)C(=O)C2)nc1N1CCOCC1` [Compound 37, 4-[5-methoxy-4-morpholino-6-(3-pyrazol-1-ylphenyl)pyrimidin-2-yl]-1-methyl-piperazin-2-one], the IC50 fell in the range of 1 to 10 µM.
Consider `Cn1ccc(-c2ccc3[nH]c(=O)c4c(Nc5ccncc5)nc(N5CCOCC5)nc4c3c2)n1` [Compound 72, 9-(1-methylpyrazol-3-yl)-2-morpholino-4-(4-pyridylamino)-6H-pyrimido[5,4-c]quinolin-one], for which the IC50 was in the range of 0.01 to 0.1 µM.
On the same count and under the same terms, the same measure for `COc1c(Nc2cccnc2)nc(N2CCOCC2)nc1-c1cccc(C#N)c1` [Compound 23, 3-(5-methoxy-2-morpholino-6-(pyridin-3-ylamino)pyrimidin-4-yl)benzonitrile]: 1 to 10 µM.
On the same count and under the same terms, the same measure for `Clc1c(Nc2ccncc2)nc(N2CCOCC2)nc1-c1cccc(-n2cccn2)c1` [Compound 50, 6-(3-(1H-pyrazol-1-yl)phenyl)-5-chloro-2-morpholino-N-(pyridin-4-yl)pyrimidin-4-amine]: 0.1 to 1 µM.
On the same count and under the same terms, in the case of `COc1c(Nc2cccnc2)nc(N2CCOCC2)nc1-c1cccc(N2CCOCC2=O)c1` [Compound 28, 4-(3-(5-methoxy-2-morpholino-6-(pyridin-3-ylamino)pyrimidin-4-yl)phenyl)morpholin-3-one] it was 1 to 10 µM.
The compound `Cn1ccc(-c2ccc3c(c2)c2nc(N4CCOCC4)nc(Nc4ccncc4)c2c(=O)n3C)n1` [Compound 71, 6-methyl-9-(1-methylpyrazol-3-yl)-2-morpholino-4-(4-pyridylamino)pyrimido[5,4-c]quinolin-one] registered an IC50 of 0.1 to 1 µM.
Regarding `COc1c(Nc2ccncc2)nc(N2CCOCC2)nc1-c1cccc(-c2ccn(C)n2)c1` [Compound 3, 5-methoxy-6-(3-(1-methyl-1H-pyrazol-3-yl)phenyl)-2-morpholino-N-(pyridin-4-yl)pyrimidin-4-amine], the IC50 lay in the range of 0.01 to 0.1 µM.
In the case of `COc1c(Nc2ccncc2)nc(N2CCOC[C@H]2CO)nc1-c1cccc(-c2ccn(C)n2)c1` [Compound 43], the concentration for half-maximal inhibition (IC50) was in the range of 1 to 10 µM.
The same measure, in the same setting: in the case of `COc1c(Nc2ccncc2)nc(OC[C@H]2COCCN2)nc1-c1cccc(-c2ccn(C)n2)c1` [Compound 42, (R)-5-methoxy-6-(3-(1-methyl-1H-pyrazol-3-yl)phenyl)-2-(morpholin-3-ylmethoxy)-N-(pyridin-4-yl)pyrimidin-4-amine] it was 1 to 10 µM; in that of `COc1c(N2CCOCC2)nc(-c2cccc(-n3cccn3)c2)nc1N1CCN(C)C(=O)C1` [Compound 36], 1 to 10 µM.
The same measure, in the same setting: in the case of `Cn1ccc(-c2cccc(-c3nc(N4CCOCC4)nc(Nc4cc[n+](C)cc4)c3-c3ncco3)c2)n1` [Compound 73] it was 1 to 10 µM.
`COc1c(Nc2cccnc2)nc(N2CCOCC2)nc1-c1cccc(-c2cccnn2)c1` [Compound 21] yielded an IC50 of 1 to 10 µM.
In turn, `COc1c(-c2cccc(-c3ccn(C)n3)c2)nc(N2CCOCC2)nc1N1CCN(C)C(=O)C1` [Compound 60, 4-(5-methoxy-6-(3-(1-methyl-1H-pyrazol-3-yl)phenyl)-2-morpholinopyrimidin-4-yl)-1-methylpiperazin-2-one] had an IC50 of 1 to 10 µM.
`COc1c(NCc2cccnn2)nc(N2CCOCC2)nc1-c1cccc(-c2ccn(C)n2)c1` [Compound 31, 5-methoxy-6-(3-(1-methyl-1H-pyrazol-3-yl)phenyl)-2-morpholino-N-(pyridazin-3-ylmethyl)pyrimidin-4-amine]: the IC50 fell in the range of 1 to 10 µM.
`COc1c(Nc2ccncc2)nc(N2CCOCC2)nc1-c1cccc(-c2ncco2)c1` [Compound 54, 5-methoxy-2-morpholino-6-(3-(oxazol-2-yl)phenyl)-N-(pyridin-4-yl)pyrimidin-4-amine] displayed an IC50 of 0.01 to 0.1 µM.
On to `COc1ccc(-c2nc(N3CCOCC3)nc(Nc3cccnc3)c2OC)cc1OC` [Compound 22], for which the IC50 was 1 to 10 µM.
Consider `COc1c(Nc2cccnc2)nc(N2CCOCC2)nc1-c1cccc(N2CCC(O)CC2)c1` [Compound 55, 1-(3-(5-methoxy-2-morpholino-6-(pyridin-3-ylamino)pyrimidin-4-yl)phenyl)piperidin-4-ol], for which the IC50 was 1 to 10 µM.
Compound `COc1c(-c2cccc(-c3ccn(C)n3)c2)nc(OCCc2ccccn2)nc1N1CCOCC1` [Compound 5, 4-(5-methoxy-6-(3-(1-methyl-H-pyrazol-3-yl)phenyl)-2-(2-(pyridin-2-yl)ethoxy)pyrimidin-4-yl)morpholine] yielded an IC50 of 1 to 10 µM.
In the case of `COc1c(Nc2cccnc2)nc(-c2ccncc2)nc1-c1cccc(-c2ccn(C)n2)c1` [Compound 34, 5-methoxy-6-(3-(1-methyl-H-pyrazol-3-yl)phenyl)-N-(pyridin-3-yl)-2-(pyridin-4-yl)pyrimidin-4-amine], the IC50 was 0.01 to 0.1 µM.
The compound `CN(C)C(=O)c1c(Nc2ccncc2)nc(N2CCOCC2)nc1-c1cccc(C#N)c1` [Compound 67] yielded an IC50 of 1 to 10 µM.
For `CN(C)C(=O)c1c(Nc2cccnc2)nc(N2CCOCC2)nc1-c1cccc(-n2cccn2)c1` [Compound 69], the IC50 was 1 to 10 µM.
As to `COc1cc(-c2nc(N3CCOCC3)nc(Nc3cccnc3)c2OC)cnc1OC` [Compound 18, 6-(5,6-dimethoxypyridin-3-yl)-5-methoxy-2-morpholino-N-(pyridin-3-yl)pyrimidin-4-amine], the IC50 was 1 to 10 µM.
The compound `COc1c(Nc2cccnc2)nc(N2CCOCC2)nc1-c1cccc(N2CCN(C)C(=O)C2)c1` [Compound 27, 4-(3-(5-methoxy-2-morpholino-6-(pyridin-3-ylamino)pyrimidin-4-yl)phenyl)-1-methylpiperazin-2-one] displayed an IC50 of 1 to 10 µM.
With `COc1c(Nc2cccnc2)nc(N2CCOCC2)nc1-c1cccc(N2CCCC2=O)c1` [Compound 29, 1-(3-(5-methoxy-2-morpholino-6-(pyridin-3-ylamino)pyrimidin-4-yl)phenyl)pyrrolidin-2-one], the IC50 lay within 1 to 10 µM.
As for `COc1c(-c2cccc(-c3ccn(C)n3)c2)nc(N2CCOCC2)nc1-c1ccc2ncccc2c1` [Compound 58, 4-(5-methoxy-4-(3-(1-methyl-1H-pyrazol-3-yl)phenyl)-6-(quinolin-6-yl)pyrimidin-2-yl)morpholine], the IC50 fell in the range of 0.1 to 1 µM.
Take `CN(C)C(=O)c1c(Nc2ccncc2)nc(N2CCOCC2)nc1-c1cccc(-c2ccn(C)n2)c1` [Compound 66]: the IC50 was in the range of 0.1 to 1 µM.
On the same count and under the same terms, in the case of `Cn1ccc(-c2cccc(-c3nc(N4CCOCC4)nc(Nc4cccnc4)c3[S+](C)[O-])c2)n1` (stereo not drawn) [Compound 59] it was 1 to 10 µM; in that of `COc1c(OCCc2ccccn2)nc(-c2cccc(-c3ccn(C)n3)c2)nc1N1CCOCC1` [Compound 4], 1 to 10 µM.
In the case of `CN1CCCC(Oc2nc(N3CCOCC3)nc3c2OCc2cc(-c4ccccc4)nn2-3)C1` (stereo not drawn) [Compound 35, 4-((1-methylpiperidin-3-yl)oxy)-2-morpholino-8-phenyl-6H-pyrazolo[1,5-d]pyrimido[5,4-b][1,4]oxazine], the IC50 lay in the range of 1 to 10 µM.
Turning to `COc1c(Nc2ccncc2)nc(N2CCOCC2)nc1-c1cccc(-n2ccc(C)n2)c1` [Compound 9], the IC50 lay within 0.01 to 0.1 µM.
